From US9394263B2, “Substituted hetero-azepinones” (priority 2012, dated 2016)

Experiments:
BIR2 domain of XIAP = BIR2 domain of XIAP (Homo sapiens (Human), UniProt P98170, C202A/C213G); experiment: TR-FRET assay for BIR2: inhibition of binding of XIAP BIR2 domain to Peptide A (SMAC-derived peptide); conditions: read-out: BIR2 IC50;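 further: percent inhibition measured across a concentration series of each compound, from which the IC50 was derived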
Method: TR-FRET Assay for BIR2 and BIR3
The peptides were labeled with the fluorescent tags FITC or TAMRA and Kd values were determined by fluorescence polarization assay.
The peptide sequence was derivatized with biotin to provide [sequence]-(8-biotin)-OH 1:2 TFA as the substrate for the TR-FRET assay.
The XIAP protein sequence was obtained from the SWISS-PROT protein sequence database and the BIR2 and BIR3 domains were derived from that.
Percentage of inhibition at each concentration was determined to generate an IC50 value for each test compound.

BIR3 domain of XIAP = BIR3 domain of XIAP (Homo sapiens (Human), UniProt P98170); experiment: TR-FRET assay for BIR3: inhibition of binding of XIAP BIR3 domain to Peptide A (SMAC-derived peptide); conditions: read-out: BIR3 IC50
BIR3 domain of XIAP, sequence (P98170 241-356 with tags or gaps limits assumed): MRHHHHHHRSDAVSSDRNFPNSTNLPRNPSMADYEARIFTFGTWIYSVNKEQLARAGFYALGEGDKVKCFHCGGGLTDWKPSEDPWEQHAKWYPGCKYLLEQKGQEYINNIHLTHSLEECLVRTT

BIR2 domain of XIAP, sequence (P98170 other isoform, or with tags, fused parts or gaps, stated change not applied): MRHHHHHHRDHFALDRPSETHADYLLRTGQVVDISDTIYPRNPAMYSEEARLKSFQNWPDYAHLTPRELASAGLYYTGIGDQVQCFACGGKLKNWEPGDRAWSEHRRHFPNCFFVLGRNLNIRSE

Compound: CCN[C@@H](C)C(=O)N[C@@H]1C(=O)N(Cc2c(C#N)n(-c3ccccc3C#N)c3ccccc23)c2ccccc2O[C@H]1C [Example 77, (S)-N-((2S,3S)-5-((2-Cyano-1-(2-cyanophenyl)-1H-indol-3-yl)methyl)-2-methyl-4-oxo-2,3,4,5-tetrahydrobenzo[b][1,4]oxazepin-3-yl)-2-(ethylamino)propanamide]
- IC50 (BIR2 domain of XIAP): 107 nM
- IC50 (BIR3 domain of XIAP): > 54800 nM
